Laboratory results as given in patent publication US20240024273A1, “TOPICAL ADMINISTRATION OF 2-(DIETHYLAMINO)ETHYL 2-(4-ISOBUTYLPHENYL)PROPRIONATE FOR TREATMENT OF DISEASES” (TECHFIELDS PHARMA CO., LTD., priority 2020, published 2024).

Columns and labels:
Format in all cases: in vivo, human
[1] = tested on: osteoarthritis of the knee; test: Second Phase 2 study: WOMAC (VAS) pain subscale score
Description: (§1) This is a Phase 2, multicenter, randomized, double blind (within dose), Ibuprofen-placebo controlled, parallel group, dose range finding study to evaluate the efficacy, safety, and PK of 2-(diethylamino)ethyl 2-(4-isobutylphenyl)propionate spray in adult subjects with clinically symptomatic OA of the knee. For subjects with bilateral knee pain, both knees will be treated, but the most symptomatic knee (ie, the most painful knee as measured by the Western Ontario and McMaster University Osteoarthritis Index [WOMAC® 3.1] pain subscale score at Screening) will be designated as the target knee for efficacy analyses. For subjects with unilateral knee pain, only the symptomatic (target) knee will be treated.
(§2) The VAS version of the WOMAC will be used for the Primary and Secondary Efficacy Endpoints. Efficacy endpoints will be assessed at Screening and Baseline (Day 1) and at the Week 2, Week 4, Week 8, and Week 12/EOS visits.
The Primary Efficacy Endpoint is the change from Baseline in the WOMAC (VAS) pain subscale score for the target knee at […] of treatment.
(§3) 4.9.2. Secondary Efficacy Endpoints: • 1. Change from Baseline in the WOMAC (VAS) pain subscale score for the target knee at 2, 8, and 12 weeks of treatment; • 2. Change from Baseline in the WOMAC (VAS) stiffness subscale scores for the target knee and WOMAC (VAS) functional ability subscale scores at 2, 4, 8, and 12 weeks of treatment; • 3. Change from Baseline in the overall WOMAC (VAS) score at 2, 4, 8, and 12 weeks of treatment; • 4. Subject's global assessment of disease status of the target knee at 2, 4, 8, and 12 weeks of treatment; • 5. Subject's global assessment of response to therapy of the target knee at 2, 4, 8, and 12 weeks of treatment; • 6. Amount of rescue medication (acetaminophen) consumed per day for target knee pain.
The Primary Efficacy Endpoint is change from Baseline in the WOMAC (VAS) pain subscale score for the target knee at 4 weeks of treatment, and will be analyzed using an analysis of covariance (ANCOVA). Treatment will be included as a fixed class effect and WOMAC Baseline pain subscale score as covariates. The primary comparisons of interest will be the difference between active Group A (4.375 mg 2-(diethylamino)ethyl 2-(4-isobutylphenyl)propionate/knee) and combined placebo, active Group B (8.75 mg 2-(diethylamino)ethyl 2-(4-isobutylphenyl)propionate/knee) and combined placebo, and active Group C (17.5 mg 2-(diethylamino)ethyl 2-(4-isobutylphenyl)propionate/knee) and combined placebo.

[2] = tested on: osteoarthritis of the knee; test: Second Phase 2 study: Investigator's assessment of response to therapy (IART); conditions: Week 12
Description: 4.9.3. Exploratory Efficacy Endpoints: • 1. Investigator's global assessment of response to therapy of the target knee at 2, 4, 8, and 12 weeks of treatment; • 2. Change from Baseline over time in overall WOMAC (VAS) score for the target knee after the treatment is stopped for 2 weeks.

[3] = tested on: osteoarthritis of the knee; test: Second Phase 2 study: WOMAC overall score
Description: as §1, §2, §3
The Secondary Efficacy Endpoints, change from Baseline in the WOMAC subscale scores for pain, stiffness, and functional ability, and overall WOMAC score at 2, 4, 8, and 12 weeks of treatment, will be analyzed using the same methods as for the Primary Efficacy Endpoint.

[4] = Baseline, oral, 3 × 400 mg (n = 20), first 130 subjects
[5] = Week 12, oral, 3 × 400 mg (n = 20), first 130 subjects
[6] = all subjects, Oral Ibuprofen 3 × 400 mg, n = 48, Week 12
[7] = all subjects, Oral Ibuprofen 3 × 400 mg, n = 48 vs. Placebo n = 48
[8] = oral 3×400 mg, first 130 subjects
[9] = oral, 3 x 400 mg (n = 20), first 130 subjects
[10] = all subjects, Oral Ibuprofen 3 × 400 mg, n = 48

For `CC(C)Cc1ccc(C(C)C(=O)O)cc1` (stereo not drawn) [Ibuprofen, 2-(4-isobutylphenyl)propionic acid, reference compound], the “WOMAC Pain Subscale Scores, Baseline (LS Mean)” value [1, 4] was 67.0 mm, the “WOMAC Pain Subscale Scores, % of improvement from Placebo” value [1, 5] was 0.9% and the “WOMAC Pain Subscale Scores, % of improvement from baseline” value [1, 5] was −32.2%. The “WOMAC Pain Subscale Scores, Changes from Baseline (LS Mean)” value [1, 5] was −21.6 mm, the “WOMAC Pain Subscale Scores, Different from placebo (LS Mean)” value [1, 5] was −0.5 mm and the “WOMAC Pain Subscale Scores, Week 12 (LS Mean)” value [1, 5] was 45.4 mm. The “WOMAC Pain Subscale Scores, % of improvement from Placebo” value [1, 6] was −4.5%, the “WOMAC Pain Subscale Scores, % of improvement from baseline” value [1, 6] was −41.2% and the “WOMAC Pain Subscale Scores, Changes from Baseline (LS Mean)” value [1, 6] was −25.4 mm. For the same compound, the “WOMAC Pain Subscale Scores, Week 12 (LS Mean)” value [1, 6] was 36.3 mm, the “WOMAC Pain, difference vs. Placebo” value [1, 7] was −2.8 mm and the “WOMAC pain, difference from placebo” value [1, 8] was −0.5 mm. For the same compound, the “IART: Good and Very good” value [2, 9] was 50.0%, the “IART: Poor and Very Poor” value [2, 9] was 25.0% and the “IART: fair” value [2, 9] was 25.0%. The “IART, Good and Very good” value [2, 10] was 47.9%, the “IART, Poor and Very Poor” value [2, 10] was 8.3% and the “IART, fair” value [2, 10] was 43.8%. The “WOMAC Overall Scores, Baseline (LS Mean)” value [3, 4] was 65.0 mm, the “WOMAC Overall Scores, % of improvement from baseline” value [3, 5] was −33.1% and the “WOMAC Overall Scores, % of improvement from placebo” value [3, 5] was −2.9%. For the same compound, the “WOMAC Overall Scores, Changes from Baseline (LS Mean)” value [3, 5] was −21.5 mm, the “WOMAC Overall Scores, Different from placebo (LS Mean)” value [3, 5] was −3.1 mm and the “WOMAC Overall Scores, Week 12 (LS Mean)” value [3, 5] was 43.5 mm. For the same compound, the “WOMAC Overall Scores, % of improvement from baseline” value [3, 6] was −41.3%, the “WOMAC Overall Scores, % of improvement from placebo” value [3, 6] was −5.1% and the “WOMAC Overall Scores, Changes from Baseline (LS Mean)” value [3, 6] was −24.9 mm. For the same compound, the “WOMAC Overall Scores, Week 12 (LS Mean)” value [3, 6] was 35.4 mm, the “WOMAC Total, difference vs. Placebo” value [3, 7] was −3.6 mm and the “WOMAC overall, difference from placebo” value [3, 8] was −3.0 mm.
